Laboratory results as given in the supplement of paper PMC10307832.

Columns and labels:
Assay in all cases: relative viability (nuclei count vs DMSO), 5 days (fraction); higher = more cells survive
[1] = compound: Cn1c(=O)n(-c2ccc(C(C)(C)C#N)cc2)c2c3cc(-c4cnc5ccccc5c4)ccc3ncc21 [Dactolisib] + CCNC(=O)c1noc(-c2cc(C(C)C)c(O)cc2O)c1-c1ccc(CN2CCOCC2)cc1 [Luminespib] (partner 0.01 µM)
Method in brief: (§1)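 Lung cancer cell lines in 1536-well plates got either a single drug or a fixed anchor-drug dose together with five library-drug doses (not always all listed) in √10 steps, by pin tool, on the day after seeding. Nuclei were counted after 5 days, and relative viability is the treated-to-vehicle ratio of nuclei counts. Values are medians of duplicate plates.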

[2] = compound: Cn1c(=O)n(-c2ccc(C(C)(C)C#N)cc2)c2c3cc(-c4cnc5ccccc5c4)ccc3ncc21 [Dactolisib] + Cc1nc(NC(=O)N2CCC[C@H]2C(N)=O)sc1-c1ccnc(C(C)(C)C(F)(F)F)c1 [Alpelisib] (partner 2 µM)
Method in brief: as §1

[3] = compound: C1CCC(CC1)N(CCNCCC2=C3C(=C(C=C2)O)NC(=O)CO3)C(=O)CCNCCC4=CC(=C(C=C4)Cl)Cl [AZ505] + N=C(N)NC(=N)NCCc1ccccc1 [Phenformin] (partner 250 µM)
Method in brief: as §1

[4] = compound: C1CCC(CC1)N(CCNCCC2=C3C(=C(C=C2)O)NC(=O)CO3)C(=O)CCNCCC4=CC(=C(C=C4)Cl)Cl [AZ505] + CC1(C)CCC(c2ccc(Cl)cc2)=C(CN2CCN(c3ccc(C(=O)NS(=O)(=O)c4ccc(N[C@H](CCN5CCOCC5)CSc5ccccc5)c(S(=O)(=O)C(F)(F)F)c4)cc3)CC2)C1 [Navitoclax] (partner 0.5 µM)
Method in brief: as §1

Cell Line | relative viability ([1]; first compound 0.002 µM) | relative viability ([1]; first compound 0.006325 µM) | relative viability ([1]; first compound 0.02 µM) | relative viability ([1]; first compound 0.06325 µM) | relative viability ([1]; first compound 0.2 µM) | relative viability ([2]; first compound 0.002 µM) | relative viability ([2]; first compound 0.006325 µM) | relative viability ([2]; first compound 0.02 µM) | relative viability ([2]; first compound 0.06325 µM) | relative viability ([2]; first compound 0.2 µM) | relative viability ([3]; first compound 0.08 µM) | relative viability ([3]; first compound 0.253 µM) | relative viability ([3]; first compound 0.8 µM) | relative viability ([3]; first compound 2.53 µM) | relative viability ([3]; first compound 8 µM) | relative viability ([4]; first compound 0.08 µM) | relative viability ([4]; first compound 0.253 µM) | relative viability ([4]; first compound 0.8 µM) | relative viability ([4]; first compound 2.53 µM) | relative viability ([4]; first compound 8 µM)
201T | 1.15 | 0.992 | 0.952 | 0.89 | 0.469 | 1.01 | 0.994 | 0.986 | 0.98 | 0.688 | 0.446 | 0.445 | 0.501 | 0.468 | 0.477 | 1.19 | 1.24 | 1.17 | 1.18 | 1.19
A549 |  |  |  |  |  | 0.966 | 0.715 | 0.614 | 0.146 | 0.083 | 0.15 | 0.19 | 0.145 | 0.113 | 0.166 | 1.2 | 1.23 | 1.14 | 1.2 | 1.32
A-427 | 0.737 | 0.834 | 0.861 | 0.572 | 0.47 | 1.16 | 1.01 | 1.03 | 0.733 | 0.578 | 0.309 | 0.255 | 0.327 | 0.395 | 0.298 | 0.967 | 0.942 | 0.919 | 0.949 | 0.802
ABC-1 | 0.496 | 0.59 |  | 0.257 | 0.366 | 1.2 | 1.01 | 0.816 | 0.571 | 0.431 | 0.196 | 0.211 | 0.242 | 0.252 | 0.219 |  |  |  |  | 
BEN | 0.382 | 0.234 | 0.366 | 0.25 | 0.268 | 1.01 | 0.89 | 0.808 | 0.47 | 0.277 | 0.24 | 0.239 | 0.293 | 0.262 | 0.286 | 0.078 | 0.0642 | 0.0775 | 0.0686 | 0.0829
CAL-12T | 0.477 | 0.128 | 0.117 | 0.142 | 0.12 | 1.53 | 1.13 | 1.2 | 0.205 | 0.206 | 0.473 | 0.531 | 0.553 | 0.525 | 0.649 | 1.12 | 1.15 | 1.21 | 1.29 | 1.24
COR-L23 | 0.678 | 0.49 | 0.284 | 0.123 | 0.138 | 0.8 | 0.646 | 0.419 | 0.199 | 0.149 | 0.446 | 0.463 | 0.383 | 0.442 | 0.441 | 0.893 | 1.01 | 0.877 | 0.833 | 0.928
COR-L 105 | 0.776 | 0.889 | 0.55 | 0.334 | 0.254 | 1.02 | 0.915 | 1.12 | 0.436 | 0.297 | 0.451 | 0.454 | 0.547 | 0.473 | 0.583 | 0.772 | 0.692 | 0.83 | 0.844 | 0.778
Calu-6 |  |  |  |  |  | 0.99 | 0.897 | 0.694 | 0.401 | 0.338 |  |  |  |  |  | 0.778 | 0.818 | 0.799 | 0.897 | 0.937
ChaGo-K-1 | 0.622 | 0.562 | 0.582 | 0.39 | 0.463 |  |  |  |  |  | 0.486 | 0.521 | 0.5 | 0.514 | 0.458 | 1.02 | 0.856 | 1.04 | 1.14 | 1.07
EBC-1 |  |  |  |  |  | 0.832 | 0.742 | 0.58 | 0.243 | 0.207 |  |  |  |  |  | 0.353 | 0.442 | 0.405 | 0.435 | 0.431
EKVX | 0.808 | 0.743 | 0.736 | 0.453 | 0.247 | 0.937 | 0.878 | 0.759 | 0.463 | 0.369 | 0.21 | 0.245 | 0.238 | 0.198 | 0.251 | 0.84 | 0.961 | 0.986 | 0.994 | 1.03
EMC-BAC-2 | 1.15 | 1.14 | 1.1 | 0.875 | 0.556 | 0.802 | 0.708 | 0.69 | 0.542 | 0.374 | 0.497 | 0.593 | 0.496 | 0.508 | 0.487 | 1.12 | 1.26 | 1.15 | 1.14 | 1.27
EPLC-272H | 0.691 | 0.262 | 0.264 | 0.203 | 0.23 | 0.961 | 0.752 | 0.779 | 0.527 | 0.465 |  | 0.283 | 0.304 | 0.241 | 0.324 | 1.07 | 0.967 | 1.08 | 0.934 | 1.06
H3255 | 0.843 | 0.875 | 0.912 | 0.796 | 0.511 | 0.767 | 0.709 | 0.653 | 0.481 | 0.314 | 0.303 | 0.377 | 0.379 | 0.321 | 0.38 | 0.439 | 0.526 | 0.529 | 0.698 | 0.615
HARA | 0.829 | 0.462 | 0.62 | 0.314 | 0.121 | 1.15 | 0.78 | 0.809 | 0.594 | 0.206 | 0.389 | 0.422 | 0.42 | 0.343 | 0.408 | 1.14 | 1.12 | 1.12 | 1.07 | 1.08
HCC-15 | 0.38 | 0.303 | 0.507 | 0.173 | 0.142 | 0.941 | 0.832 | 0.874 | 0.417 | 0.38 | 0.411 | 0.476 | 0.474 | 0.415 | 0.446 | 0.657 | 0.734 | 0.697 | 0.721 | 0.669
HCC-44 | 0.914 | 1.04 | 0.943 | 0.379 | 0.644 | 0.907 | 0.722 | 0.601 | 0.337 | 0.3 | 0.144 |  | 0.294 | 0.247 | 0.207 | 1 | 0.963 | 0.927 | 1.01 | 0.939
